Experimental data from patent US20250282734A1 (Bayer Aktiengesellschaft, priority 2021, published 2025).
Like-named read-outs stand apart in the source and are kept apart here. Marks after values point to notes of the source that are not given here.

Tests used:
[1] = Solubility of cholinate vs free acid and other salts, shake-flask method (Example 14); assay type: physicochemical; details: aqueous solvents, pH 4.5 and above, FeSSIF and FaSSIF
Protocol: Preparation of FaSSIF (Fasted State Simulated Intestinal Fluid) blank solution: 4.2 g NaOH, 44.7 g NaH2PO4*2 H2O, and 61.86 g NaCl were dissolved in approximately 9.5 L demineralized water. Then, the pH of this solution was adjusted to 6.50+/−0.05 using HCl or NaOH, respectively. In the last step, the final volume was adjusted to 10.0 L by the addition of demineralized water.
Preparation of the final FaSSIF solution: 4.48 g SIF (Simulated Intestinal Fluids) powder (provider: biorelevant.com, Product code: FFF01 (May 2022)) were dissolved in approximately 500 mL FaSSIF blank solution, then the final volume was adjusted to 2.0 L by the addition of FaSSIF blank solution. After 2 hours, the solution was considered to be ready to use and was used within 48 hours.
Preparation of FeSSIF (Fed State Simulated Intestinal Fluid) blank solution: 40.4 g NaOH, 118.74 g NaCl, and 82.4 mL glacial acetic acid were dissolved in approximately 9.5 L demineralized water. Then, the pH of this solution was adjusted to 5.00+/−0.05 using HCl or NaOH, respectively. In the last step, the final volume was adjusted to 10.0 L by the addition of demineralized water.
Preparation of the final FeSSIF solution: 22.4 g SIF powder (provider: biorelevant.com, Product code: FFF01 (May 2022)) were dissolved in approximately 500 mL FeSSIF blank solution, then the final volume was adjusted to 2.0 L by the addition of FeSSIF blank solution. The solution was considered to be ready to use immediately after manufacturing and was used within 48 hours.

[2] = Solubility free acid vs. salt, shake-flask method (Example 12); assay type: physicochemical
[3] = Determination of exposure in rat after intragastric administration (Example 13); assay type: in vivo; details: for AUC(0-t): female, plasma, po, read-out: AUC(0-tlast); for AUC(0-t) / AUC(0-tlast)norm / AUC(0-tlast): free acid in rat plasma
Protocol: Determination of exposure after intragastric application of test compounds was performed in female conscious rats with a body weight of 0.2 kg (minimum) to 0.25 kg (maximum). The test compounds were applied as bolus via intragastric probe to unfed female rats in solution or suspension in the vehicle ethanol/solutol/water (v/v/v 10/40/50).
At the indicated timepoints between 8 min and 24 h after dosing, 150 μl blood were sampled via a catheter from the vena jugularis. The samples were treated with K-EDTA as anticoagulant and stored cooled until further processing (refrigerator, 4° C.). The samples were centrifuged (15 min, 3000 rpm), then an aliquot of 100 μL was taken from the supernatant (plasma), precipitated by addition of 400 μL cold acetonitrile or methanol (abs.) and frozen at −20° C. over night. The samples were centrifuged (15 min, 3000 rpm), then 150 μL of the clear supernatant were taken for analytical testing. Analytics were performed using an Agilent 1200 HPLC-system with LCMS/MS detection.
The applied dose of cholinate according to the invention was adjusted as compared to free acid according to the difference in molecular weight. The resulting equivalent doses were used for comparison.

[4] = Hygroscopy, dynamic vapour sorption (DVS) isotherms (Example 15); assay type: physicochemical; details: for Change in mass [%], Desorption / Change in mass [%], Sorption: listed as Cholinate Form A
Protocol: Water sorption isotherms were determined using a DVS Resolution gravimetric sorption analyzer (London, UK), or a DVS Intrinsic instrument (Surface measurement Systems). The sample was dried for 1000 minutes at 0% relative humidity (R.H.). Afterwards the dry weight was recorded. […] The equilibrium criterion for each relative humidity set point was 0.002% per minute relative mass change as a function of time.

[5] = Thermodynamic stability of polymorphic form; assay type: physicochemical
[6] = Dissolution profile, flow through cell in FeSSIF / FaSSIF (Example 16); assay type: physicochemical; details: micronized samples
Protocol: Prior to the measurements, the samples were micronized using a jet mill (MC DECJET 30) under nitrogen, with a pressure of 4.5 Bar for the injector and 4.0 Bar grinding pressure.
Dissolution rates of the drug substance were then determined using a flow through cell (FTC) from Sotax. All experiments were conducted in triplicates.
Then, the respective medium (FaSSIF or FeSSIF) was pumped through the cell with a pump rate of 2 mL/min for a total time of 14 minutes, resulting in a total volume of 28 mL. This volume was collected in time increments of 2 minutes, leading to 7 collected fractions with 4 mL each. The drug substance concentration of each fraction was determined by HPLC (external standard).

Structure (SMILES): O=C(O)c1cc(NC(=O)C2(c3ccc(C(F)(F)F)cc3F)CC2)ccc1-c1cnn(C2CCC2)c1 [cholinate, 2-hydroxy-N,N,N-trimethylethanaminium 2-(1-cyclobutyl-1H-pyrazol-4-yl)-5-[({1-[2-fluoro-4-(trifluoromethyl)phenyl]cyclopropyl}carbonyl)amino]benzoate]
- aqueous solubility, comparison in words [1]: higher solubility than the amorphous or partially crystalline salts
- solubility ([2]; 0.1M HCl, 25 °C, simulated gastric fluid, thermodynamic from solid, 0.1M HCl, 25° C., read-out: Solubility): < 1 µg/mL
- solubility ([2]; Acetone, 25° C.): 412 µg/mL
- solubility ([2]; Acetonitrile, 25° C.): 3797 µg/mL
- solubility ([2]; Ethanol, 25° C.): >12500 µg/mL
- solubility ([2]; PEG 400, 25° C.): 19159 µg/mL
- solubility ([2]; Phosphate buffer pH 8, 25° C.): 10798 µg/mL
- solubility ([2]; Solutol/Ethanol/Water (40/10/50 V/V/V), 25° C.): >35000 µg/mL
- solubility ([2]; Water, 25° C., stirred overnight): >12500** mg/L
- solubility ([2]; acetate buffer, 25 °C, pH 4.5, aqueous buffer, thermodynamic from solid, Acetate buffer pH 4.5, 25° C., read-out: Solubility): 2 µg/mL
- pH of the clear solution ([2]; solubility test in water, pH of water before stirring: 5.57): **pH of the clear solution: 8.32, pH of water before stirring: 5.57
- AUC(0-t) ([3]; rat, 10 mg/kg, dose equiv. 10 mg/kg): 60 µg·h/mL
- AUC(0-t) ([3]; rat, 248 mg/kg, dose equiv. 248 mg/kg): 745 µg·h/mL
- AUC(0-t) ([3]; rat, 495 mg/kg, dose equiv. 495 mg/kg): 1000 µg·h/mL
- AUC(0-tlast)norm ([3]; dose equiv. 10 mg/kg): 6 kg·h/L
- AUC(0-tlast) ([3]; dose equiv. 30 mg/kg): 146 µg·h/mL
- AUC(0-tlast)norm ([3]; dose equiv. 30 mg/kg): 4.8 kg·h/L
- AUC(0-tlast) ([3]; dose equiv. 100 mg/kg): 447 µg·h/mL
- AUC(0-tlast)norm ([3]; dose equiv. 100 mg/kg): 4.5 kg·h/L
- AUC(0-tlast)norm ([3]; dose equiv. 248 mg/kg): 3 kg·h/L
- AUC(0-tlast)norm ([3]; dose equiv. 495 mg/kg): 2 kg·h/L
- Increase of plasma exposure of free acid with dose ([3]; rat, doses above 30 mg/kg, listed as cholinate salt): dose-proportional increase of exposure up to a dose of approximately 100 mg/kg
- Change in mass [%], Desorption ([4]; 0% Relative humidity): −0.14%
- Change in mass [%], Sorption ([4]; 0% Relative humidity): 0.00%
- Change in mass [%], Desorption ([4]; 10% Relative humidity): 2.50%
- Change in mass [%], Sorption ([4]; 10% Relative humidity): 0.36%
- Change in mass [%], Desorption ([4]; 20% Relative humidity): 3.59%
- Change in mass [%], Sorption ([4]; 20% Relative humidity): 0.56%
- Change in mass [%], Desorption ([4]; 30% Relative humidity): 5.08%
- Change in mass [%], Sorption ([4]; 30% Relative humidity): 0.75%
- Change in mass [%], Desorption ([4]; 40% Relative humidity): 6.98%
- Change in mass [%], Sorption ([4]; 40% Relative humidity): 0.95%
- Change in mass [%], Desorption ([4]; 50% Relative humidity): 9.30%
- Change in mass [%], Sorption ([4]; 50% Relative humidity): 1.21%
- Change in mass [%], Desorption ([4]; 60% Relative humidity): 12.14%
- Change in mass [%], Sorption ([4]; 60% Relative humidity): 1.61%
- Change in mass [%], Desorption ([4]; 70% Relative humidity): 16.02%
- Change in mass [%], Sorption ([4]; 70% Relative humidity): 2.11%
- Change in mass [%], Desorption ([4]; 80% Relative humidity): 21.87%
- Change in mass [%], Sorption ([4]; 80% Relative humidity): 3.05%
- Change in mass [%], Desorption ([4]; 90% Relative humidity): 33.33%
- Change in mass [%], Sorption ([4]; 90% Relative humidity): 18.30%
- Change in mass [%], Desorption ([4]; 95% Relative humidity): 46.21%
- Change in mass [%], Sorption ([4]; 95% Relative humidity): 46.21%
- Hygroscopicity, comparison in words ([4]; in particular at 30-50% relative humidity): less hygroscopic than the other salts
- DVS Dm @ 30% R.H. (Sorption) ([4]; summarized results, 30% R.H.): 0.8%
- DVS Dm @ 50% R.H. (Sorption) ([4]; summarized results, 50% R.H.): 1.2%
- DVS Dm @ 80% R.H. (Sorption) ([4]; summarized results, 80% R.H.): 3.1%
- Thermodynamic stability of the solid form [5]: thermodynamically stable at room temperature and at least up to 35 °C
- Dissolution profile, comparison in words [6]: better dissolution profile than the other salts
